The source of these data is patent publication US5208243A, “5-isoquinolinesulfonamides” (Adir et Compagnie, priority 1991, dated 1993).

Where a name gives a salt, the structure may show the parent alone.

One experiment relates to rabbit aortas. In words: Contraction of rabbit aortas induced by noradrenaline in a medium without calcium. Details: species or system New Zealand rabbit. The conditions noted are these: Oryctolagus cuniculus, 0.5 h, rabbit aorta, incubated 30 minutes; for inhibition at 1 µM: compound 10^-6 M; for inhibition at 0.1 µM: compound 10^-7 M. The procedure:
Studies are carried out on rings, 3 mm in length, […] The vascular rings are immersed in a normal physiological solution or in a physiological solution lacking calcium (+0.2 mM of the chelating agent EGTA), which is thermostatically regulated at 37° C. and aerated with a 95% O2 +5% CO2 mixture. The rings are linked to a STATHAM tension sensor (UC2-GOULD). The optimal tension for each vessel is applied and a stabilization period of 90 min is observed for the preparations. b) Antivasoconstrictive activity of the compounds of the invention in a medium without calcium.

The subject of another experiment is rat aortas. In words: Contraction of rat aortas induced by potassium depolarization (hyperpotassium medium). Further details: species or system WISTAR rat. The following applies: 80 mM KCl, 37 mM NaCl, read-out: IC50 (concentration inhibiting by 50% the contraction of rat aortas induced by potassium depolarization). The text has this: The rings are linked to a STATHAM tension sensor (UC2-GOULD).

As for `CN(C1CCN(CCCCOc2ccc([N+](=O)[O-])cc2)CC1)S(=O)(=O)c1cccc2cnccc12` [Example 2, N-Methyl-N-{1-[4-(p-nitrophenoxy)butyl]-4-piperidyl}-5-isoquinolinesulfonamide fumarate], the inhibition at 1 µM in the experiment on rabbit aortas is 12%. Further, the IC50 in the experiment on rat aortas came out at 1300 nM.
Taken in the same sequence, the figures for `CN(C1CCN(CCCCOc2ccccc2)CC1)S(=O)(=O)c1cccc2cnccc12` [Example 3, N-Methyl-N-{1-[4-(phenoxy)butyl]4-piperidyl}-5 isoquinolinesulfonamide fumarate] were 47% and 1700 nM.
Regarding `CN(C1CCN(CCCCOc2ccc(Cl)cc2)CC1)S(=O)(=O)c1cccc2cnccc12` [Example 6, N-Methyl-N-{1-[4-(p-chlorophenoxy)butyl4-piperidyl}-5-isoquinolinesulfonamide hydrochloride], the inhibition at 1 µM with rabbit aortas was found to be 18%. Also, the IC50 in the experiment on rat aortas was 1100 nM.
Turning to `COc1ccc(OCCCCN2CCC(N(C)S(=O)(=O)c3cccc4cnccc34)CC2)cc1` [Example 7, N-Methyl-N-{1-[4-(p-methoxyphenoxy)butyl]-4-piperidyl}-5-isoquinolinesulfonamide hydrochloride], the inhibition at 1 µM in the experiment on rabbit aortas was 13%. The IC50 in the experiment on rat aortas was determined as 1900 nM.
As for `CN(C1CCN(CCCCOc2ccc(C#N)cc2)CC1)S(=O)(=O)c1cccc2cnccc12` [Example 8, N-Methyl N-{1-[4-(p-cyanophenoxy)butyl]4-piperidyl}-5-isoquinolinesulfonamide dihydrochloride], the IC50 in the experiment with rat aortas was found to be 950 nM.
Regarding `CN(C1CCN(CCCCSc2ccc(F)cc2)CC1)S(=O)(=O)c1cccc2cnccc12` [Example 12, N-Methyl-N-{1-[4-(p-fluorophenylthio)butyl]-4-piperidyl}-5-isoquinolinesulfonamide dihydrochloride], the inhibition at 1 µM in the experiment with rabbit aortas is 19%. In the experiment on rat aortas, the IC50 is 1300 nM.
For `O=S(=O)(NC1CCN(CCCCOc2ccc(F)cc2)CC1)c1cccc2cnccc12` [Example 13, N-{1-[4-(p-fluorophenoxy)butyl]4-piperidyl)}-5-isoquinolinesulfonamide dihydrochloride], in the experiment on rabbit aortas, the inhibition at 1 µM is 42%. Besides, in the experiment on rat aortas, the IC50 came to 2900 nM.
`O=S(=O)(NCC1CCN(CCCOc2ccc(F)cc2)CC1)c1cccc2cnccc12` [Example 15, N-{[1-[3-(p-Fluorophenoxy)propyl]-4-piperidyl]methyl}-5-isoquinolinesulfonamide]: in the experiment with rabbit aortas, the inhibition at 1 µM was determined as 59%. The IC50 in the experiment on rat aortas was found to be 3500 nM.
For `CN(CC1CCN(CCCOc2ccccc2)CC1)S(=O)(=O)c1cccc2cnccc12` [Example 19, N-Methyl-N-{[1-[3-(phenoxy)propyl]-4-piperidyl]methyl}-5-isoquinolinesufonamide], in the experiment with rabbit aortas, the inhibition at 1 µM came to 67% and the inhibition at 0.1 µM stood at 31%. In addition, the IC50 in the experiment with rat aortas is 2800 nM.
As for `CN(CC1CCN(CCCCOc2ccc(F)cc2)C1)S(=O)(=O)c1cccc2cnccc12` (centres unmarked) [Example 21, N-Methyl-N-{[1-[4-(p-fluorophenoxy)butyl]-3-pyrrolidinyl]methyl}-5-isoquinolinesulfonamide dihydrochloride], in the experiment with rabbit aortas, the inhibition at 1 µM stood at 73% and the inhibition at 0.1 µM worked out at 17%. The IC50 with rat aortas came to 1900 nM.
Consider `CN(CC1CCN(CCCOc2ccc(F)cc2)C1)S(=O)(=O)c1cccc2cnccc12` (centres unmarked) [Example 22, N-Methyl-N-{[1-[3-(p-fluorophenoxy)propyl]-3-pyrrolidinyl]methyl}-5-isoquinolinesulfonamide dihydrochloride], for which, in the experiment with rabbit aortas, the inhibition at 1 µM turned out to be 82% and the inhibition at 0.1 µM was 43%. Moreover, in the experiment with rat aortas, the IC50 worked out at 3600 nM.
In the case of `CN(CC1CCN(CCCNc2ccc(F)cc2)CC1)S(=O)(=O)c1cccc2cnccc12` [Example 25, N-Methyl-N-{1-[3-(p-fluorophenylamino)propyl]-4-piperidyl]methyl}-5-isoquinolinesulfonamide fumarate], in the experiment on rabbit aortas, the inhibition at 1 µM is 77% and the inhibition at 0.1 µM worked out at 22%.

By inhibition is commonly meant the share of the control response that was lost under treatment.
